This is an account of results in ChEMBL document CHEMBL1129760, “A topliss tree analysis of the HIV-protease inhibitory activity of 6-phenyl-4-hydroxy-pyran-2-ones” (Bioorg Med Chem Lett, 1996).

The test has as its target Human immunodeficiency virus type 1 protease (Human immunodeficiency virus 1, UniProt Q72874). As to the kind of experiment: Inhibitory activity against purified HIV-1 protease (BH10) at a pH of 4.7 and a final enzyme concentration of 0.45-1.1 nM.
As usually defined, the IC50 is the concentration that gives 50% inhibition. For `CC(C)c1ccccc1Sc1c(O)cc(-c2cccc(Cl)c2)oc1=O`, the IC50 stood at 23 nM. With `COc1ccccc1-c1cc(O)c(Sc2ccccc2C(C)C)c(=O)o1` the figure was 1420 nM.

The molecule `CC(C)c1ccccc1Sc1c(O)cc(-c2cccc(C(F)(F)F)c2)oc1=O` yielded a 50% inhibitory concentration (IC50) of 76 nM.

`CCOC(=O)c1cccc(-c2cc(O)c(Sc3ccccc3C(C)C)c(=O)o2)c1` displayed a concentration for half-maximal inhibition (IC50) of 1930 nM. As for `Cc1cc(C)cc(-c2cc(O)c(Sc3ccccc3C(C)C)c(=O)o2)c1`, the IC50 stood at 15 nM. With `COC(=O)c1cc(-c2cc(O)c(Sc3ccccc3C(C)C)c(=O)o2)ccc1O` the figure was 62 nM; with `CCc1cccc(-c2cc(O)c(Sc3ccccc3C(C)C)c(=O)o2)c1`, 262 nM. Regarding `COc1ccc(-c2cc(O)c(Sc3ccccc3C(C)C)c(=O)o2)cc1`, the midpoint of inhibition, the IC50, lay at 83 nM.

`Cc1ccc(-c2cc(O)c(Sc3ccccc3C(C)C)c(=O)o2)cc1`: the IC50 was found to be 59 nM.

`CC(C)c1ccccc1Sc1c(O)cc(-c2cccc(-c3ccccc3)c2)oc1=O` had a half-inhibitory concentration (IC50) of 38 nM. The same measure for `CCOC(=O)c1ccc(-c2cc(O)c(Sc3ccccc3C(C)C)c(=O)o2)cc1`: 35 nM; for `CC(C)c1ccccc1Sc1c(O)cc(-c2cccc([N+](=O)[O-])c2)oc1=O`: 67 nM; for `CC(C)c1ccccc1Sc1c(O)cc(-c2ccc(Cl)c(Cl)c2)oc1=O`: 22 nM. `CCOC(=O)c1cc(-c2cc(O)c(Sc3ccccc3C(C)C)c(=O)o2)ccc1O` had an IC50 of 148 nM. `CC(C)c1ccccc1Sc1c(O)cc(-c2ccc(C(N)=O)cc2)oc1=O`: the IC50 came out at 135 nM.

The molecule `CC(C)c1ccccc1Sc1c(O)cc(-c2ccc(O)cc2)oc1=O` gave an IC50 of 54 nM. The molecule `COC(=O)c1cccc(-c2cc(O)c(Sc3ccccc3C(C)C)c(=O)o2)c1` registered a half-maximal inhibitory concentration (IC50) of 80 nM.

With `CC(C)c1ccccc1Sc1c(O)cc(-c2cc(Cl)cc(Cl)c2)oc1=O`, the half-inhibitory concentration (IC50) is 26 nM. Regarding `CC(C)c1ccccc1Sc1c(O)cc(-c2cccc(N(C)C)c2)oc1=O`, the half-inhibitory concentration (IC50) turned out to be 114 nM. With `CC(C)c1ccccc1Sc1c(O)cc(-c2cccc(O)c2)oc1=O` the figure was 89 nM; with `CC(C)c1ccccc1Sc1c(O)cc(-c2ccc(Cl)cc2)oc1=O`, 76 nM; with `Cc1ccccc1-c1cc(O)c(Sc2ccccc2C(C)C)c(=O)o1`, 1340 nM.

The molecule `CC(C)c1ccccc1Sc1c(O)cc(-c2ccc(C(=O)O)cc2)oc1=O` registered a half-inhibitory concentration (IC50) of 68 nM. On to `Cc1cccc(-c2cc(O)c(Sc3ccccc3C(C)C)c(=O)o2)c1`, for which inhibition was half-maximal at 14 nM (IC50).

In turn, `CC(C)c1ccccc1Sc1c(O)cc(-c2ccc([N+](=O)[O-])cc2)oc1=O` returned an IC50 of 191 nM. As for `CC(C)c1ccccc1Sc1c(O)cc(-c2ccccc2Cl)oc1=O`, half-maximal inhibition (IC50) required 225 nM. In the case of `CC(C)(C)NC(=O)[C@@H]1CCCCN1C[C@@H](O)[C@H](Cc1ccccc1)NC(=O)[C@H](CC(N)=O)NC(=O)c1ccc2ccccc2n1`, the concentration for half-maximal inhibition (IC50) stood at 10 nM. Molecule `CC(C)c1ccccc1Sc1c(O)cc(-c2ccc(C#N)cc2)oc1=O` had an IC50 of 205 nM. For `CC(C)c1ccccc1Sc1c(O)cc(-c2ccc(F)cc2)oc1=O`, the IC50 turned out to be 124 nM. As to `CC(C)c1ccccc1Sc1c(O)cc(-c2cccc(C(=O)O)c2)oc1=O`, the IC50 was determined as 151 nM. With `CC(C)c1ccccc1Sc1c(O)cc(-c2ccc(O)c(C(=O)O)c2)oc1=O`, the half-maximal inhibitory concentration (IC50) worked out at 292 nM.
